Reference: patent publication US8192962B2, “Processes for detecting toxic substances” (Daikin Industries, Ltd., priority 2001, dated 2012)

System: Genes belonging to other category
Test: DNA chip mRNA expression in yeast, genes belonging to other category (Table 9)
Format: cell-based, Saccharomyces cerevisiae S288C
Method: Yeast (Saccharomyces cerevisiae S288C (α SUC2mal mel gap2 CUP1)) were incubated at 25° C. on YPD medium (yeast extract 1%, polypepton 2%, glucose 2%). One of toxic chemical substances was added to the cells at logarithmic growth phase, and the cells were further incubated for two hours. Cells were cultured without any chemical substance in the same condition, and were used as control. Concentrations of the chemical substances were defined to inhibit the growth of the yeast but not lead to death.
After completion of the incubation, the culture was centrifuged to collect the cells. To the cells, sodium acetate buffer (50 mM sodium acetate, 10 mM EDTA, 1% SDS) was added, and the mixture was shaken at 65° C. for five minutes, followed by returning to room temperature, and obtaining the supernatant, of which the procedures were repeated two times. To the supernatant, ½ amount of a solution of phenol/chloroform was added, and the mixture was centrifuged to give a supernatant, which was added with an equal amount of chloroform, and the mixture was centrifuged to give a supernatant. To the supernatant, an equal amount of isopropanol containing 0.3 M sodium acetate was added, and the mixture was allowed to stand at room temperature for 30 minutes, after which the mixture was centrifuged to give a sediment of the whole RNAs. Seventy % ethanol was added to the sediment, and the mixture was again centrifuged to give a sediment, which was then dried and dissolved in water. mRNA was isolated from the whole RNAs as followings. In view of the fact that a poly A chain is attached to the 3′ terminus of mRNA, a polynucleotide having a poly T structure which was immobilized on the surface of latex beads was used to trap the mRNA, and then the mRNA was washed and eluted with spine column (Oligotex-dT30<Super>mRNA Purification Kit, Takara). Reverse transcription of the mRNA was conducted with a reverse transcriptase (Super Script II Reverse Transcriptase; catalogue No. 18064-014, GibcoBRL) using fluorescence-labeled nucleotides to give cDNAs that were introduced with Cy3-dUTP or Cy5-dUTP during the reverse transcription.
The labeled cDNAs were dissolved in TE buffer (10mM Tris-HCl/1 mM EDTA, pH8.0), and the solution was dropped on the DNA chip containing the whole genes of yeast (DNA Chip Research Inc. Japan) so that the cDNAs were hybridized on the DNA chip at 65° C. for over 12 hours. The fluoresces intensity of the DNA chip was read with a scanner, and the ratio relative to the fluorescence intensity resulting from the absence of chemical substance was estimated as the following, which is shown in Tables 1 to 9: […]

**Q.** Which “The level of expressed mRNA in the presence of chemical substance/The level of expressed mRNA in the absence of chemical substance” value (yeast gene YAR010C) does the source give for `CCCCCCCCCCCCOS(=O)(=O)[O-].[Na+]` [(18), sodium lauryl sulfate] here?
**A.** The value was 1.0.

**Q.** What about the “The level of expressed mRNA in the presence of chemical substance/The level of expressed mRNA in the absence of chemical substance” value (yeast gene YBL005W-A) of the same compound?
**A.** Its value is 1.0.

**Q.** And the “The level of expressed mRNA in the presence of chemical substance/The level of expressed mRNA in the absence of chemical substance” value (yeast gene YBL041W)?
**A.** The value was 2.0.

**Q.** What about the “The level of expressed mRNA in the presence of chemical substance/The level of expressed mRNA in the absence of chemical substance” value (yeast gene YBL043W) of the same compound?
**A.** Its value is 1.8.

**Q.** What about the “The level of expressed mRNA in the presence of chemical substance/The level of expressed mRNA in the absence of chemical substance” value (yeast gene YBL078C) of the same compound?
**A.** The value was 2.8.

**Q.** And the “The level of expressed mRNA in the presence of chemical substance/The level of expressed mRNA in the absence of chemical substance” value (yeast gene YBL101C)?
**A.** The value was 1.1.

**Q.** And the “The level of expressed mRNA in the presence of chemical substance/The level of expressed mRNA in the absence of chemical substance” value (yeast gene YBL101W-A)?
**A.** Its value is 1.2.

**Q.** What about the “The level of expressed mRNA in the presence of chemical substance/The level of expressed mRNA in the absence of chemical substance” value (yeast gene YBR009C) of the same compound?
**A.** Its value is 2.4.

**Q.** What about the “The level of expressed mRNA in the presence of chemical substance/The level of expressed mRNA in the absence of chemical substance” value (yeast gene YBR076W) of the same compound?
**A.** Its value is 1.2.

**Q.** What about the “The level of expressed mRNA in the presence of chemical substance/The level of expressed mRNA in the absence of chemical substance” value (yeast gene YBR170C) of the same compound?
**A.** Its value is 1.4.

**Q.** And the “The level of expressed mRNA in the presence of chemical substance/The level of expressed mRNA in the absence of chemical substance” value (yeast gene YBR173C)?
**A.** Its value is 1.6.

**Q.** What about the “The level of expressed mRNA in the presence of chemical substance/The level of expressed mRNA in the absence of chemical substance” value (yeast gene YBR177C) of the same compound?
**A.** Its value is 0.9.

**Q.** And the “The level of expressed mRNA in the presence of chemical substance/The level of expressed mRNA in the absence of chemical substance” value (yeast gene YBR214W)?
**A.** Its value is 1.2.

**Q.** And the “The level of expressed mRNA in the presence of chemical substance/The level of expressed mRNA in the absence of chemical substance” value (yeast gene YBR239C)?
**A.** Its value is 0.9.

**Q.** And the “The level of expressed mRNA in the presence of chemical substance/The level of expressed mRNA in the absence of chemical substance” value (yeast gene YBR286W)?
**A.** Its value is 1.6.

**Q.** And the “The level of expressed mRNA in the presence of chemical substance/The level of expressed mRNA in the absence of chemical substance” value (yeast gene YCL020W)?
**A.** Its value is 1.3.

**Q.** What about the “The level of expressed mRNA in the presence of chemical substance/The level of expressed mRNA in the absence of chemical substance” value (yeast gene YCL027W) of the same compound?
**A.** Its value is 0.8.

**Q.** And the “The level of expressed mRNA in the presence of chemical substance/The level of expressed mRNA in the absence of chemical substance” value (yeast gene YCR004C)?
**A.** Its value is 3.5.

**Q.** What about the “The level of expressed mRNA in the presence of chemical substance/The level of expressed mRNA in the absence of chemical substance” value (yeast gene YCR038C) of the same compound?
**A.** Its value is 1.1.

**Q.** What about the “The level of expressed mRNA in the presence of chemical substance/The level of expressed mRNA in the absence of chemical substance” value (yeast gene YCR067C) of the same compound?
**A.** The value was 0.9.

**Q.** What about the “The level of expressed mRNA in the presence of chemical substance/The level of expressed mRNA in the absence of chemical substance” value (yeast gene YCR071C) of the same compound?
**A.** Its value is 1.3.

**Q.** And the “The level of expressed mRNA in the presence of chemical substance/The level of expressed mRNA in the absence of chemical substance” value (yeast gene YCR088W)?
**A.** The value was 0.9.

**Q.** And the “The level of expressed mRNA in the presence of chemical substance/The level of expressed mRNA in the absence of chemical substance” value (yeast gene YCR106W)?
**A.** Its value is 1.2.

**Q.** And the “The level of expressed mRNA in the presence of chemical substance/The level of expressed mRNA in the absence of chemical substance” value (yeast gene YDL008W)?
**A.** Its value is 1.6.

**Q.** And the “The level of expressed mRNA in the presence of chemical substance/The level of expressed mRNA in the absence of chemical substance” value (yeast gene YDL065C)?
**A.** The value was 1.2.

**Q.** What about the “The level of expressed mRNA in the presence of chemical substance/The level of expressed mRNA in the absence of chemical substance” value (yeast gene YDL192W) of the same compound?
**A.** Its value is 2.3.

**Q.** And the “The level of expressed mRNA in the presence of chemical substance/The level of expressed mRNA in the absence of chemical substance” value (yeast gene YDL220C)?
**A.** Its value is 0.9.

**Q.** And the “The level of expressed mRNA in the presence of chemical substance/The level of expressed mRNA in the absence of chemical substance” value (yeast gene YDL230W)?
**A.** Its value is 1.2.

**Q.** And the “The level of expressed mRNA in the presence of chemical substance/The level of expressed mRNA in the absence of chemical substance” value (yeast gene YDL238C)?
**A.** The value was 1.3.

**Q.** And the “The level of expressed mRNA in the presence of chemical substance/The level of expressed mRNA in the absence of chemical substance” value (yeast gene YDR022C)?
**A.** The value was 1.2.

**Q.** And the “The level of expressed mRNA in the presence of chemical substance/The level of expressed mRNA in the absence of chemical substance” value (yeast gene YDR041W)?
**A.** Its value is 2.5.

**Q.** And the “The level of expressed mRNA in the presence of chemical substance/The level of expressed mRNA in the absence of chemical substance” value (yeast gene YDR055W)?
**A.** Its value is 1.9.

**Q.** What about the “The level of expressed mRNA in the presence of chemical substance/The level of expressed mRNA in the absence of chemical substance” value (yeast gene YDR084C) of the same compound?
**A.** The value was 1.3.

**Q.** What about the “The level of expressed mRNA in the presence of chemical substance/The level of expressed mRNA in the absence of chemical substance” value (yeast gene YDR085C) of the same compound?
**A.** The value was 1.8.

**Q.** What about the “The level of expressed mRNA in the presence of chemical substance/The level of expressed mRNA in the absence of chemical substance” value (yeast gene YDR104C) of the same compound?
**A.** Its value is 1.0.

**Q.** What about the “The level of expressed mRNA in the presence of chemical substance/The level of expressed mRNA in the absence of chemical substance” value (yeast gene YDR115W) of the same compound?
**A.** Its value is 1.4.

**Q.** And the “The level of expressed mRNA in the presence of chemical substance/The level of expressed mRNA in the absence of chemical substance” value (yeast gene YDR125C)?
**A.** Its value is 1.2.

**Q.** And the “The level of expressed mRNA in the presence of chemical substance/The level of expressed mRNA in the absence of chemical substance” value (yeast gene YDR168W)?
**A.** Its value is 1.4.

**Q.** What about the “The level of expressed mRNA in the presence of chemical substance/The level of expressed mRNA in the absence of chemical substance” value (yeast gene YDR169C) of the same compound?
**A.** The value was 1.1.

**Q.** And the “The level of expressed mRNA in the presence of chemical substance/The level of expressed mRNA in the absence of chemical substance” value (yeast gene YDR181C)?
**A.** The value was 1.2.

**Q.** And the “The level of expressed mRNA in the presence of chemical substance/The level of expressed mRNA in the absence of chemical substance” value (yeast gene YDR188W)?
**A.** The value was 0.8.

**Q.** And the “The level of expressed mRNA in the presence of chemical substance/The level of expressed mRNA in the absence of chemical substance” value (yeast gene YDR259C)?
**A.** Its value is 0.8.

**Q.** And the “The level of expressed mRNA in the presence of chemical substance/The level of expressed mRNA in the absence of chemical substance” value (yeast gene YDR264C)?
**A.** The value was 1.4.

**Q.** What about the “The level of expressed mRNA in the presence of chemical substance/The level of expressed mRNA in the absence of chemical substance” value (yeast gene YDR315C) of the same compound?
**A.** Its value is 1.2.

**Q.** And the “The level of expressed mRNA in the presence of chemical substance/The level of expressed mRNA in the absence of chemical substance” value (yeast gene YDR358W)?
**A.** The value was 1.9.

**Q.** What about the “The level of expressed mRNA in the presence of chemical substance/The level of expressed mRNA in the absence of chemical substance” value (yeast gene YDR373W) of the same compound?
**A.** Its value is 1.6.

**Q.** What about the “The level of expressed mRNA in the presence of chemical substance/The level of expressed mRNA in the absence of chemical substance” value (yeast gene YDR388W) of the same compound?
**A.** The value was 1.3.
